# According to ChEMBL document CHEMBL1955753, “SAR-study on a new class of imidazo[1,2-a]pyridine-based inhibitors of 5-lipoxygenase” (Bioorg Med Chem Lett, 2012):
# pIC50: −log10 of the molar value.
# Columns and labels:
# [1] = molecular target: T1, Polyunsaturated fatty acid 5-lipoxygenase (Homo sapiens, UniProt P09917); assay: Inhibition of 5-lipoxygenase in human polymorphonuclear leukocytes assessed as reduction in A23187 and AA-stimulated 5-LO product formation preincubated for 15 mins prior stimulation measured after 10 mins by HPLC analysis; format: cell-based
# T1 sequence (P09917 whole entry): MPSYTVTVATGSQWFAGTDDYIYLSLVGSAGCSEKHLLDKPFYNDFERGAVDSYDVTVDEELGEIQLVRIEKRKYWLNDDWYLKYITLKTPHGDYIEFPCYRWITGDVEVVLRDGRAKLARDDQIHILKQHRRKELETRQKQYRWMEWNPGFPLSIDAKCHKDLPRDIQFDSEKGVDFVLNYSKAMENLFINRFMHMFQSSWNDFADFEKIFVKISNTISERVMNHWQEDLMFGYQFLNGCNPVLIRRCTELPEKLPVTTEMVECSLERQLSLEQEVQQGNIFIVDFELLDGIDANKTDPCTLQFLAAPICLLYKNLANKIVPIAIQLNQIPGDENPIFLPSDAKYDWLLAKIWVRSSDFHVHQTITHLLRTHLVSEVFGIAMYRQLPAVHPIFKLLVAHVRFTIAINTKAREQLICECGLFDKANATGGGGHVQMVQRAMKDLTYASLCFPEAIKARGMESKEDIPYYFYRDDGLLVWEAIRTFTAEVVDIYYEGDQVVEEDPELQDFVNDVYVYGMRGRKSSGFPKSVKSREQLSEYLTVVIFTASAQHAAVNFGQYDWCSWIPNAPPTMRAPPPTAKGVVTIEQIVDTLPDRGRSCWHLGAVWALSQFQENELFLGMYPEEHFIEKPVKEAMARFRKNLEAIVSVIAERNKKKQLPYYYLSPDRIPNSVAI
# [2] = molecular target: T1, Polyunsaturated fatty acid 5-lipoxygenase; assay: Inhibition of 5-lipoxygenase in S100 cell free fraction of human polymorphonuclear leukocytes assessed as reduction in 5-LO product formation preincubated for 15 mins measured after 10 mins by HPLC analysis; format: cell-based
SMILES,pIC50 [1],pIC50 [2]
Cc1ccc(-c2nc3cc(C)ccn3c2NC2CCCC2)cc1,6.05,–
Cc1ccc2nc(-c3ccncc3)c(NC3CCCCC3)n2c1,5.14,5.11
Cc1ccc2nc(-c3ccc(N(C)C)cc3)c(NC3CCCCC3)n2c1,6.22,–
Clc1ccc2nc(-c3ccc(N4CCOCC4)cc3)n(CC3CCCCC3)c2c1,5.92,5.24
CCOc1ccc2[nH]c(=O)c(-c3nc4ccc(C)cn4c3NC3CCCCC3)cc2c1,5.74,4.67
Cc1ccc2nc(-c3ccc([N+](=O)[O-])cc3)c(NC3CCCCC3)n2c1,5.82,< 4.52
CN(C)c1ccc(-c2nc3ccc(Cl)cc3n2CC2CCCCC2)cc1,6.30,< 5.00
